This note sets out measurements from patent publication US8618095B2 (Rigel Pharmaceuticals, Inc., priority 2010, dated 2013).

For orientation: IC50 means the concentration needed to halve the response being measured.

Structures are written as SMILES. Structures can show the parent of a compound that is named as a salt.

The first assay has as its system Human mast cells (CHMC). Kind of assay: LD Tryptase release assay in CHMC (mast cell activation induced by FcγR cross-linking). The following applies: Homo sapiens, Mast cell, anti-IgG stimulation, activity of tryptase released upon degranulation. In kind it is cell-based. Here is the method:
Compounds were assayed for inhibition of mast cell activation induced by FcγR cross-linking by measuring the activity of tryptase released upon degranulation as follows:
Human mast cells were cultured and differentiated from […] progenitor cell as described in U.S. Patent Publication No. 2005-234049, incorporated herein by reference. For example, 65 μL of various concentrations of the compound to be assayed were prepared in MT (137 mM NaCl, 2.7 mM KCl, 1.8 mM CaCl2, 1.0 mM MgCl2, 5.6 mM Glucose, 20 mM Hepes (pH 7.4), 0.1% Bovine Serum Albumin, (Sigma A4503)) containing 2% MeOH and 1% DMSO, or control buffer were added to duplicate 96-well V-bottom plates. Pelleted and re-suspended (in warm MT) CHMC cells (65 μL) were added to each 96-well plate, mixed and incubated for 1 hour at 37° C. 25 μl of 6× anti-IgG Rabbit anti-human IgG, Affinity purified (Bethyl Laboratories Cat No. A80-105A3) final concentration 1 μg/mL, was added to the test wells. MT (25 μL) was added to control wells. After a 60-minute incubation at 37° C., cells and cell debris were pelleted by centrifugation at 1000 rpm for 10 min and tryptase and leukotriene C4 levels were measured.
To measure tryptase levels, 25 μL of supernatant from each well was transferred to a fresh 96-well black bottom plate, to which 100 μL of fresh tryptase substrate solution [(Z-Ala-Lys-Arg-AMC2TFA; Enzyme Systems Products, #AMC-246)] 1:2000 in tryptase assay buffer [0.1 M Hepes (pH 7.5), 10% w/v Glycerol, 10 μM Heparin (Sigma H-4898) 0.01% NaN3] was added. After 30 minute incubation at room temperature, the optical density of the plates is measured at 355 nm/460 nm on a spectrophotometric plate reader. Table 1 provides the IC50 values.
Compounds of the disclosure were assayed for their ability to inhibit mast cell activation induced by FcγR cross-linking by measuring the activity of tryptase released upon degranulation. The IC50 values for the LD Tryptase assay are presented in Table 2, in which “0” is >100 μM; “A” is 1-100 μM; “B” is 0.5-1 μM; “C” is 0.1-0.5 μM; and “D” is less than 0.1 μM: […]
For the molecule `COC1CN(c2ccc(Nc3ncc(F)c(Nc4ccc5c(n4)NC(=O)C(C)(C)O5)n3)cn2)C1` [Compound 69, N4-(2,2-dimethyl-3,4-dihydro-3-oxo-2H-pyrido[3,2-b][1,4]oxazin-6-yl)-5-fluoro-N2-[6-(3-methoxyazetidin-1-yl)pyridin-3-yl]-2,4-pyrimidinediamine], the IC50 was greater than 100000 nM.
With `C[C@@H]1COCCN1c1ccc(Nc2ncc(F)c(Nc3ccc4c(n3)NC(=O)C(C)(C)O4)n2)cn1` [Compound 50, N4-(2,2-dimethyl-3,4-dihydro-3-oxo-2H-pyrido[3,2-b][1,4]oxazin-6-yl)-5-fluoro-N2-[6-((3R)-3-methylmorpholino)pyridin-3-yl]-2,4-pyrimidinediamine], the IC50 was less than 100 nM.
On the same count and under the same terms, as for `CC1(C)Oc2ccc(Nc3nc(Nc4ccc(N5CCSCC5)cc4)ncc3F)nc2NC1=O` [Compound 153, N4-(2,2-dimethyl-3,4-dihydro-3-oxo-2H-pyrido[3,2-b][1,4]oxazin-6-yl)-5-fluoro-N2-[4-thiomorpholinophenyl]-2,4-pyrimidinediamine], the figure is 1000 to 100000 nM; as for `COc1cc(Nc2ncc(F)c(Nc3ccc4c(n3)NC(=O)C(C)(C)O4)n2)ccc1N1CCOCC1` [Compound 27, N4-(2,2-dimethyl-3,4-dihydro-3-oxo-2H-pyrido[3,2-b][1,4]oxazin-6-yl)-5-fluoro-N2-[3-methoxy-4-morpholinophenyl]-2,4-pyrimidinediamine], less than 100 nM; as for `COC1CCN(c2ccc(Nc3ncc(F)c(Nc4ccc5c(n4)NC(=O)C(C)(C)O5)n3)cn2)CC1` [Compound 53, N4-(2,2-dimethyl-3,4-dihydro-3-oxo-2H-pyrido[3,2-b][1,4]oxazin-6-yl)-5-fluoro-N2-[6-(4-methoxypiperidin-1-yl)pyridin-3-yl]-2,4-pyrimidinediamine], 100 to 500 nM.
The same measure, in the same setting: as for `O=C1COc2ccc(Nc3nc(Nc4ccc(N5CCCOCC5)cc4)ncc3F)nc2N1` [Compound 44, N4-(3,4-dihydro-3-oxo-2H-pyrido[3,2-b][1,4]oxazin-6-yl)-5-fluoro-N2-[4-homomorpholinophenyl]-2,4-pyrimidinediamine], the figure is 100 to 500 nM; as for `CCOC[C@H]1CN(c2ccc(Nc3ncc(F)c(Nc4ccc5c(n4)NC(=O)CO5)n3)cn2)CCO1` [Compound 102, N4-(3,4-dihydro-3-oxo-2H-pyrido[3,2-b][1,4]oxazin-6-yl)-N2-[6-(((2R)-2-ethoxymethyl)morpholino)pyridin-3-yl]-5-fluoro-2,4-pyrimidinediamine], 100 to 500 nM; as for `CCOCC1CN(c2ccc(Nc3ncc(F)c(Nc4ccc5c(n4)NC(=O)CO5)n3)cc2)CCO1` (stereo in doubt) [Compound 41, N4-(3,4-dihydro-3-oxo-2H-pyrido[3,2-b][1,4]oxazin-6-yl)-5-fluoro-N2-[4-(((2S)-2-ethoxymethyl)morpholino)phenyl]-2,4-pyrimidinediamine], 100 to 500 nM.
On the same count and under the same terms, as for `C[C@@H]1CN(c2ccc(Nc3ncc(F)c(Nc4ccc5c(n4)NC(=O)CO5)n3)cn2)C[C@H](C)O1` [Compound 95, rac-Cis-N4-(3,4-dihydro-3-oxo-2H-pyrido[3,2-b][1,4]oxazin-6-yl)-N2-[6-(2,6-dimethylmorpholino)pyridin-3-yl]-5-fluoro-2,4-pyrimidinediamine], the figure is 100 to 500 nM; as for `CCOCC1CN(c2ccc(Nc3ncc(F)c(Nc4ccc5c(n4)NC(=O)C(C)(C)O5)n3)cc2)CCO1` (stereo in doubt) [Compound 42, N4-(2,2-dimethyl-3,4-dihydro-3-oxo-2H-pyrido[3,2-b][1,4]oxazin-6-yl)-5-fluoro-N2-[4-(((2S)-2-ethoxymethyl)morpholino)phenyl]-2,4-pyrimidinediamine], 100 to 500 nM; as for `O=C1COc2ccc(Nc3nc(Nc4ccc(N5CCOCC5)c(F)c4)ncc3F)nc2N1` [Compound 34, N4-(3,4-dihydro-3-oxo-2H-pyrido[3,2-b][1,4]oxazin-6-yl)-5-fluoro-N2-[3-fluoro-4-morpholinophenyl]-2,4-pyrimidinediamine], less than 100 nM.
As for `Cc1cc(Nc2ncc(F)c(Nc3ccc4c(n3)NC(=O)C(C)(C)O4)n2)ccc1N1CCC2(CCOC2)CC1` [Compound 159, N4-(2,2-dimethyl-3,4-dihydro-3-oxo-2H-pyrido[3,2-b][1,4]oxazin-6-yl)-5-fluoro-N2-[3-methyl-4-(2-oxa-8-azaspiro[4.5]decan-8-yl)phenyl]-2,4-pyrimidinediamine], the IC50 fell in the range of 500 to 1000 nM.
Still for that read-out and setting: as for `COc1cc(Nc2ncc(F)c(Nc3ccc4c(n3)NC(=O)C(C)(C)O4)n2)ccc1C1CCOCC1` [Compound 48, N4-(2,2-dimethyl-3,4-dihydro-3-oxo-2H-pyrido[3,2-b][1,4]oxazin-6-yl)-5-fluoro-N2-[-3-methoxy-4-tetrahydropyranophenyl]-2,4-pyrimidinediamine], the figure is 100 to 500 nM; as for `CC1(C)Oc2ccc(Nc3nc(Nc4ccc(N5CCOC5=O)nc4)ncc3F)nc2NC1=O` [Compound 72, N4-(2,2-dimethyl-3,4-dihydro-3-oxo-2H-pyrido[3,2-b][1,4]oxazin-6-yl)-5-fluoro-N2-[6-(2-oxooxazolidin-3-yl)pyridin-3-yl]-2,4-pyrimidinediamine], 100 to 500 nM.
On to `CN(C)c1ccc(Nc2ncc(F)c(Nc3ccc4c(n3)NC(=O)C(C)(C)O4)n2)cn1` [Compound 147, N4-(2,2-dimethyl-3,4-dihydro-3-oxo-2H-pyrido[3,2-b][1,4]oxazin-6-yl)-5-fluoro-N2-[6-(dimethylamino)pyridin-3-yl]-2,4-pyrimidinediamine], for which the IC50 was 100 to 500 nM.
Same read-out and setting: as for `CO[C@@H]1CCN(c2ccc(Nc3ncc(F)c(Nc4ccc5c(n4)NC(=O)C(C)(C)O5)n3)cn2)C1` [Compound 65, N4-(2,2-dimethyl-3,4-dihydro-3-oxo-2H-pyrido[3,2-b][1,4]oxazin-6-yl)-5-fluoro-N2-[6-((3R)-3-methoxypyrrolidin-1-yl)pyridin-3-yl]-2,4-pyrimidinediamine], the figure is 100 to 500 nM; as for `CC1(C)Oc2ccc(Nc3nc(Nc4ccc5ccncc5c4)ncc3F)nc2NC1=O` [Compound 133, N4-(2,2-dimethyl-3,4-dihydro-3-oxo-2H-pyrido[3,2-b][1,4]oxazin-6-yl)-5-fluoro-N2-(isoquinolin-7-yl)-2,4-pyrimidinediamine], less than 100 nM; as for `CC1(C)Oc2ccc(Nc3nc(Nc4ccc(N5CCCCC5)cc4)ncc3F)nc2NC1=O` [Compound 78, N4-(2,2-dimethyl-3,4-dihydro-3-oxo-2H-pyrido[3,2-b][1,4]oxazin-6-yl)-5-fluoro-N2-[4-(piperidin-1-yl)phenyl]-2,4-pyrimidinediamine], 1000 to 100000 nM.
Still for that read-out and setting: the figure for `CC1(C)Oc2ccc(Nc3nc(Nc4ccc(N5CCC6(CCOC6)CC5)cc4)ncc3F)nc2NC1=O` [Compound 157, N4-(2,2-dimethyl-3,4-dihydro-3-oxo-2H-pyrido[3,2-b][1,4]oxazin-6-yl)-5-fluoro-N2-[4-(2-oxa-8-azaspiro[4.5]decan-8-yl)phenyl]-2,4-pyrimidinediamine] is 100 to 500 nM; for `CC1(C)Oc2ccc(Nc3nc(Nc4ccc(N5CCC6(CCOC6)CC5)nc4)ncc3F)nc2NC1=O` [Compound 144, N4-(2,2-dimethyl-3,4-dihydro-3-oxo-2H-pyrido[3,2-b][1,4]oxazin-6-yl)-5-fluoro-N2-[6-(2-oxa-8-azaspiro[4.5]decan-8-yl)pyridin-3-yl]-2,4-pyrimidinediamine] it is 100 to 500 nM.
Same read-out and setting: the figure for `CCN(CC)C1CCN(c2ccc(Nc3ncc(F)c(Nc4ccc5c(n4)NC(=O)C(C)(C)O5)n3)cn2)CC1` [Compound 61, N4-(2,2-dimethyl-3,4-dihydro-3-oxo-2H-pyrido[3,2-b][1,4]oxazin-6-yl)-5-fluoro-N2-[6-(4-(diethylamino)piperidin-1-yl)pyridin-3-yl]-2,4-pyrimidinediamine] is 100 to 500 nM.

The assay is the same for the next values; noted with them: anti-IgG stimulation, activity of tryptase released upon degranulation.
As for `CC1(C)Oc2ccc(Nc3nc(Nc4ccc(N5CCOCC5)nc4)ncc3F)nc2N(COP(=O)(O)O)C1=O` [Compound 4, N4-(2,2-dimethyl-3,4-dihydro-4-[(dihydrogenphosphonoxy)methyl]-3-oxo-2H-pyrido[3,2-b][1,4]oxazin-6-yl)-5-fluoro-N2-(6-morpholinopyridin-3-yl)-2,4-pyrimidinediamine disodium salt], the IC50 lay in the range of 1000 to 100000 nM.
Same read-out and setting: as for `CC1(C)Oc2ccc(Nc3nc(Nc4ccc(N5CCOCC5)nc4)ncc3F)nc2NC1=O` [Compound 139, N4-(2,2-dimethyl-3,4-dihydro-3-oxo-2H-pyrido[3,2-b][1,4]oxazin-6-yl)-5-fluoro-N2-[6-morpholinopyridin-3-yl]-2,4-pyrimidinediamine p-toluenesulfonic acid salt], the figure is 500 to 1000 nM.
